Data as given in article PMC1192819, “Molecular cloning and characterization of a nuclear androgen receptor activated by 11-ketotestosterone” (Reproductive biology and endocrinology : RB&E, 2005).

Key:
[1] = biological target: T1, AR in stickleback kidney cytosolic extracts (Gasterosteus aculeatus, UniProt Q801Z1); test: Ligand competition assay with 1 nM [3H]-DHT, kidney cytosolic extracts; assay type: binding, three-spined stickleback (Gasterosteus aculeatus)
T1 sequence (Q801Z1 1-682): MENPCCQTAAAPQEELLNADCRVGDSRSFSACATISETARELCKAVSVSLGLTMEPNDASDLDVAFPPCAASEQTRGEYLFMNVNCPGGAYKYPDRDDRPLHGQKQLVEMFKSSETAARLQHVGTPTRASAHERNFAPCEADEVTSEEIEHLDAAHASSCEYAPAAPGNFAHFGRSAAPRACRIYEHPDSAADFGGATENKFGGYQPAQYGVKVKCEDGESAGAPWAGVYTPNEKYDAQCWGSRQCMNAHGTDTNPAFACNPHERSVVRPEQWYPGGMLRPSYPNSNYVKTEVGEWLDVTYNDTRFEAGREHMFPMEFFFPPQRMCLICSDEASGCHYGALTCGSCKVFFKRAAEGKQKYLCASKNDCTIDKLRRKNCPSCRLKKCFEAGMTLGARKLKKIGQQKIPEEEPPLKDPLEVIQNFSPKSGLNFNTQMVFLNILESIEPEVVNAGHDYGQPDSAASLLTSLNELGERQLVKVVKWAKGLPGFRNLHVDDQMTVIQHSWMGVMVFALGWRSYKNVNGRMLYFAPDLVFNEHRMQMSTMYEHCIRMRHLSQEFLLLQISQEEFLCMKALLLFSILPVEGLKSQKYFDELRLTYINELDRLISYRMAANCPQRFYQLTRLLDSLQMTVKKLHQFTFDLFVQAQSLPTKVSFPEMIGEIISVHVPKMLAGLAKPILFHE
Method: (§1) The steroid specificity of receptor binding was examined using a competitive binding assay. […] Following incubation, the reaction was terminated by addition of DCC and centrifugation and the specific binding in each tube was determined as described above.

[2] = system: AR protein and AR mRNA in stickleback kidney; test: Hormone regulation of kidney AR protein (radioreceptor assay) and AR mRNA (slot blot); assay type: in vivo, three-spined stickleback (Gasterosteus aculeatus); conditions: data not shown; for regulation of AR protein (radioreceptor assay): sticklebacks exposed for 6 days
Method: (§2) The fish were anesthetized with 0.1% (v/v) 2-phenoxyethanol (Sigma, St. Louis, MO, USA) and implanted intraperitoneally with Silclear silicone tubing (10-mm length, 0.6-mm inner diameter, 1.2-mm outer diameter) containing steroids dissolved in cocoa butter. […] KA was used as this steroid is converted into KT by the fish. Tubes containing cocoa butter alone were used as controls. Following implantation the fish were maintained in 50-liter aquaria containing brackish water (0.5% salinity) at 20°C under LD 16:8 h. At sampling fish were decapitated and the kidneys were excised, frozen using liquid nitrogen, and stored at -70°C. A number of experiments were performed as follows. Spiggin mRNA was measured in post-breeding females that were dissected 2 days following implantation of tubes. Cytosolic androgen-receptors were measured in females and in castrated males. Males were castrated under anesthesia as above, by making a 1.5 mm long incision into the abdominal cavity on each side and removing the testes using forceps. The females and the castrated males were implanted with control and high dose tubes and dissected after 6 days. AR mRNA was studied in females implanted for 12 h, 2 and 16 days (separate experiments) with control and high dose tubes and in males castrated as above and implanted for 10 days with control tubes and high doses of KA or E2.
(§3) Total RNA was extracted using Tri Reagent™ (Sigma). Aliquots of 10 μg of total RNA were mixed with denaturing solution (6 × SSC, 7% (v/v) formaldehyde) and transferred onto a nylon membrane (Amersham Pharmacia Biotech) using a Minifold II Slot Blot Apparatus (Schleicher and Schuell, Keene, NH, USA). Membranes were probed using either a randomly primed [α-^32P]-dCTP radiolabelled AR cDNA fragment (918 base pairs) that was isolated by reverse transcriptase-polymerase chain reaction and sequenced as above, or a randomly primed [α-^32P]-dCTP radiolabelled spiggin-α cDNA. Hybridizations were performed at 65°C overnight (6 × SCC, 0.1% (w/v) SDS, 100 μg ml^-1 tRNA, and 5 × Denhardt's solution). The membranes were washed for 2 × 30 minutes at 42°C and 65°C in 0.1 × SCC, 0.1% (w/v) SDS whereafter Hyperfilm™-MP film was exposed at -70°C. The films were visualized using Curix 60 Film Developer. Following AR and spiggin mRNA determination the membranes were stripped and analyzed for 18S rRNA using a cDNA fragment as internal control. Each AR or spiggin transcript was then semi-quantified using Quantity ONE 4.2.3 (Bio-Rad, Laboratories, Inc, Hercules, CA, USA) in relation to its internal 18S transcript.
Aliquots (250 μl) of the nuclear or cytosolic preparations were added to each tube, the tubes were vortexed and incubated over night at 4°C. To stop the binding reaction, 250 μl DCC was added to each tube. The tubes were vortexed and the suspensions were incubated for 5 min at 4°C, before spinning at 3,000 × g at 4°C for 5 min. The supernatants were decanted into 7 ml scintillation vials, 5 ml of standard scintillation cocktail was added and the radioactivity in each sample was measured in a liquid scintillation counter (Beckman LS 6000SC, Beckman Instruments, Fullerton, CA). The procedure used for the expressed recombinant ARβ2 was modified as follows. […] The expressed proteins were diluted 1:100 and aliquots (100 μl) were added to each reaction tube. The tubes were vortexed and incubated over night at 4°C. To stop the binding reaction, 200 μl DCC was added to each tube. The tubes were vortexed and the suspension were incubated for 5 min at 4°C, before spinning at 3,000 × g at 4°C for 5 min. 250 μl of the supernatant was transferred into 5 ml scintillation vials and 4 ml of standard scintillation cocktail was added before the radioactivity in each sample was measured in a liquid scintillation counter (Wallac 1409, Wallac Oy, Turku, Finland).

rainbow trout ARα = conditions: COS-1 cell line; read-out: IC50 (ligand binding); cited from earlier work
stickleback ARβ2 = test: ARE-luciferase trans-activation assay, stickleback ARβ2 in transfected HepG2 and ZFL cells; assay type: cell-based, three-spined stickleback (Gasterosteus aculeatus); conditions: 40 h, versus control
Method: Two liver epithelial cell lines were used to test receptor activity. HepG2 cells (ATCC, Manassas, VA) were maintained in DMEM supplemented with 10% FCS and non-essential amino acids. ZFL cells (ATCC) were maintained in 50% L-15 Leibovitz, 15% […] and 35% DMEM supplemented with 10% FCS (Gibco, Paisley, Scotland, UK) and 50 ng ml-1 EGF (Sigma). Cells were cultured at 37°C (HepG2) or 28°C (ZFL) in 5% CO2. The transfection experiments were initiated by replacing the tissue culture medium with fresh phenol-free medium supplemented with charcoal stripped FCS and the cells were seeded on 24-well plates. Transfections were performed at 90–95% confluence using 1,5 μl Lipofectamine 2000 (Invitrogen, Carlsbad, CA, USA) and 0,6 μg DNA per well. Transfected DNA contained 60 ng pRL (Promega), 270 ng androgen response element (ARE) luciferase reporter vector, 270 ng stickleback ARβ2 expression vector or 270 ng human AR expression vector (pCMVhAR) while 270 ng empty TNT cloning vector was used to control background luciferase levels following transfections. Two different ARE containing promoter constructs were tested, one containing 3 separate ARE (HRE; slp-ARU) and a second one construct (slp-HRE2) containing 4 copies of the ARE with high affinity for R1881, a synthetic androgen, and low affinity for dexamethasone, a synthetic glucocorticoid.
After 16 h the transfection medium was replaced with fresh phenol-free medium, supplemented with charcoal stripped FCS, containing different steroid hormones. The cells were exposed to the hormones for 40 h and luciferase levels were detected using the Dual Luciferase Assay kit (Promega) in a TD 20/20 Luminometer (Turner Designs, Sunnyvale, CA). For each cell line, transfection assay was performed for each concentration with n = 4 and the luciferase value of each assay were normalized to its corresponding Renilla luciferase activity. Each experiment was repeated a minimum of 3 times. The fold-induction is presented as luciferase values normalized against the control. The control levels were arbitrarily set to 1.0 for each cell line.

[3] = biological target: T2, stickleback ARβ2 (reticulocyte lysate) (Gasterosteus aculeatus, UniProt Q801Z2); test: Ligand competition assay with 1 nM [3H]-DHT, ARβ2 containing reticulocyte extract; assay type: binding, three-spined stickleback (Gasterosteus aculeatus)
T2 sequence (Q801Z2 1-735): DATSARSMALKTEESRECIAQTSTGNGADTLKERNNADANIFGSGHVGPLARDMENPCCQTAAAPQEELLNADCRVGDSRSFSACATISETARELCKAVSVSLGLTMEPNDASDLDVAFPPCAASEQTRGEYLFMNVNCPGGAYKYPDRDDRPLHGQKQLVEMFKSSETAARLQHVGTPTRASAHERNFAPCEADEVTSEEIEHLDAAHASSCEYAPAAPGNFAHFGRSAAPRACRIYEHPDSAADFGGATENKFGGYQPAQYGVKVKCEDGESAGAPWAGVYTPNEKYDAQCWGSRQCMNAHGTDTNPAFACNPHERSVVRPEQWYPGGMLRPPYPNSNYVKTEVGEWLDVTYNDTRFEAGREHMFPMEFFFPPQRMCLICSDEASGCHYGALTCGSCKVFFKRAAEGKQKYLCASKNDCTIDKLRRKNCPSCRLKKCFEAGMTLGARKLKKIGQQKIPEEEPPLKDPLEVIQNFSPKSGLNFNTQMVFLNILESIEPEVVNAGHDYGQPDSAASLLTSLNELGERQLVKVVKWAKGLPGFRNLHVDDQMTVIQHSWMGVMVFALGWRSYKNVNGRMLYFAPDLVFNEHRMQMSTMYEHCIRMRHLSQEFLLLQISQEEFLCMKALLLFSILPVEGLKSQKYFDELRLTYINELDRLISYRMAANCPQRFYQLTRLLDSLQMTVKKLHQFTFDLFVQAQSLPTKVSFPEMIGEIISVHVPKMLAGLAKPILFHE
Method: The excised AR pBK CMV clones were digested with XbaI and EcoRI and the inserts were gel purified prior to ligation into the pCMV-TNT vector (Promega) between XbaI and EcoRI. […] AR was expressed by introducing the pCMV-TNT into the TNT coupled reticulocyte lysate system (Promega) according to the manufacturer's instructions. The size of the expressed products was determined by addition of S^35-methionin to the reticulocyte lysate system. The obtained protein suspension was analyzed on a denaturing 8% SDS PAGE and the sizes were determined using prestained SDS-PAGE broad range protein molecular weight standard (Bio-Rad) and a control luciferase protein of 62 kDa included in the reticulocyte lysate system (Promega). For use in binding assays AR was expressed in the absence of radioactive S^35-methionein and stored at 4°C until further used in recombinant binding assay experiments.
as §1

[4] = system: spiggin mRNA in adult female stickleback kidney; test: Induction of spiggin mRNA in stickleback kidney after steroid implants (slot blot); assay type: in vivo, three-spined stickleback (Gasterosteus aculeatus)
Method: as §2, §3

[5] = system: spiggin mRNA in adult female stickleback kidney; conditions: cited from earlier work

Row | SMILES | binding observed (competition for [3H]-DHT) [1] | regulation of AR mRNA (slot blot) [2] | regulation of AR protein (radioreceptor assay) [2] | further results
1 | C[C@@H](O)[C@@]1(O)CC[C@H]2[C@@H]3CCC4=CC(=O)CC[C@]4(C)[C@H]3CC[C@@]21C [17,20β-P, 17,20β-dihydroxy-4-pregnen-3-one] | not |  |  | 
2 | CC12CCC(=O)C=C1CCC1C2CCC2(C)C1CCC2(O)C(O)CO (stereo not drawn) [20β-S, 17,20β,21-trihydroxy-4-pregnen-3-one] | not |  |  | 
3 | C[C@]12CCC(=O)C[C@@H]1CC[C@@H]1[C@@H]2CC[C@]2(C)[C@@H](O)CC[C@@H]12 [DHT, 5α-dihydrotestosterone] |  | None of the three tested androgens regulated | None of the three tested androgens regulated | IC50 (rainbow trout ARα): 0.0006 µM; induction of luciferase activity (stickleback ARβ2; HepG2 cells): 4.1 fold; induction of luciferase activity (stickleback ARβ2; ZFL cells): 4.5 fold
4 | C[C@]12CC[C@@H]3c4ccc(O)cc4CC[C@H]3[C@@H]1CC[C@@H]2O [E2, 17β-estradiol] |  | repressor | repressor | EC50 ([3]; read-out: EC50 (competition for [3H]-DHT binding)): 0.06461 ± 0.00028 µM
5 | C[C@]12CCC(=O)C=C1CC[C@@H]1[C@@H]2[C@@H](O)C[C@@]2(C)[C@H]1CC[C@]2(O)C(=O)CO [F, cortisol] | not |  |  | binding (competition for [3H]-DHT) [3]: poor binding
6 | C[C@]12CCC(=O)C=C1CC[C@@H]1[C@@H]2C(=O)C[C@]2(C)C(=O)CC[C@@H]12 [KA, 11-ketoandrostenedione] |  | None of the three tested androgens regulated | None of the three tested androgens regulated | effectiveness at increasing kidney spiggin mRNA levels relative to T ([4]; 25 μg implant dose, females): 50 times; increase in spiggin mRNA levels ([4]; females implanted with 25 μg KA, 2 days, versus control): 30 fold; spiggin mRNA induction after longer exposures ([5]; 16 days exposure): only observed with KA
7 | C[C@]12CC[C@H]3[C@@H](CCC4=CC(=O)CC[C@@]43C)[C@@H]1CC[C@@H]2O [T, testosterone] |  | None of the three tested androgens regulated | None of the three tested androgens regulated | spiggin induction ([4]; 1 μg implant dose, females): not inducing spiggin production
8 | CC(C)C(=O)Nc1ccc([N+](=O)[O-])c(C(F)(F)F)c1 [flutamide] |  |  |  | blocking of androgen induction of spiggin protein and mRNA synthesis ([5]; anti-androgen, ref 25 and Olsson, Berg, Lindberg, unpublished results): can be blocked
